Data on two compounds can be found in paper PMC7351026, “Serum Half-Lives for Short- and Long-Chain Perfluoroalkyl Acids after Ceasing Exposure from Drinking Water Contaminated by Firefighting Foam” (Environmental Health Perspectives, 2020).

A short description of data set [1]: Urine/serum ratio in paired samples. The format is in vivo, human. The settings on record: mean of four paired samplings per subject, 17 airport employees. How it is done:
Urinary PFAS concentrations were specific-gravity adjusted. The ratio of urine and serum concentration for each PFAS (urine/serum ratio) at each sampling was calculated based on PFAS concentrations in paired serum and urine samples from 17 employees. Then the personal average urine/serum ratio was calculated using the mean value of repeated samplings for each employee.

Details of data set [2]: method as in Zhang et al. 2015. To be noted: ref Zhang et al. 2015, cited from earlier work.
Data set [3] is described as follows: Population average serum elimination rate and half-life (linear mixed model, one compartment, first-order). As to the method:
Serum PFAS concentrations were log-transformed. Time was calculated as the elapsed days between supply of clean bottled water and […] blood sampling. We assumed one compartment, first-order elimination kinetics. In this kinetic model, the body is considered as one homogeneous volume in which mixing is instantaneous and from which PFAS could be absorbed, transferred, and eliminated according to the rate of elimination that is proportional to the concentration of PFAS in the body. Two methods were used to estimate serum elimination rate constant (k) and half-life for each PFAS:
Briefly, in the linear mixed model In Cij=αi+tijβ+Xiβ′+εij, Cij is the serum concentration of PFAS for individual i at sampling round j; αi is the subject-specific intercept (random intercept); tij is the time; β is the average slope; Xi is a vector of fixed covariates for individual i; β′ stands for the fixed effect coefficients; and εij is the random error term. We modified the model by excluding the subject-specific slope (random slope) due to a failure to converge after inclusion, which may be due to the limited number of study subjects. The negative value of the average slope ( −β ) is the population average k, and average half-life is calculated as ln2/k .
In the linear mixed model, we included only age and sex as covariates. We based covariate selection on factors that could conceivably confound the PFAS half-life estimation. Working task, duration of employment, number of glasses of water per day, blood donation, and pregnancy before mitigation of PFAS exposure from drinking water can influence the initial serum levels but would not be expected to influence the PFAS half-life.
A sensitivity analysis was performed using the same linear mixed model but with Cij as the serum levels after subtracting general background levels (using the median levels obtained from the nonexposed reference population). If the serum PFAS levels after subtraction were lower than the half of the background levels, they were replaced with half of the background levels.

The conditions of data set [4]: general Swedish population (Ronneby, 106 Swedes) with high exposure through drinking water, 2 y follow-up from 6 months after clean water; ref Li et al. 2018; cited from earlier work.
Data set [5] is described as follows: PFAS levels in serum samples of airport employees (LC/MS/MS). The settings on record: all the serum samples, although elevated in the drinking water. The text has this: All 26 employees at the airport were invited for a blood sampling between 11 and 14 September 2018 (i.e., within 11 to 14 d after the termination of contaminated drinking-water exposure). Information on age, home address, employment history, working tasks, and sick leave and vacation days in August and September were collected by questionnaire. In addition, data on the number of glasses of water consumed per day, local fish consumption, and history of blood donation and medication were collected. For female employees, questions about menstruation, pregnancy, and duration of breast-feeding were asked.
The PFAS analysis in serum from the first sampling was immediately performed and personal results were reported to the employees. […] These 17 employees submitted four rounds of blood and first morning urine samples in parallel, at 1-month intervals. In total, there were five rounds of serum sampling (started from September) and four rounds of urine sampling (from October). For modeling of elimination, all samples were reanalyzed in a single batch. We obtained 83 serum samples with a median count of 5 (range: 4–5) samples per employee, and 59 urine samples with median of 4 (range: 1–4) samples per employee. Only one employee provided a single urine sample. The study was approved by the Regional Ethical Review Board in Lund, Sweden. All employees provided written informed consent.
Venous whole blood samples were obtained and were centrifuged for 10 min at 1,500×g at room temperature to isolate the serum on site. The serum samples were collected in 6-mL BD Vacutainer® Plus plastic serum tubes without gel (BD). Urine samples were collected in 13-mL polypropylene screw cap tubes (Sarstedt). Serum and urine samples were frozen at −20°C after sampling and transported to Lund using cold chain logistics. Serum and urine samples were stored at −80°C and −20°C , respectively, before analysis.
The serum samples, QC samples, and chemical blanks were prepared in 96-well plates with 1.5-mL flat-bottom glass vials (Biotech solutions). Serum samples were thawed for 1–2 h and mixed on a vortex shaker for approximately 10 s two times. Once after all samples were thawed and a second time before pipetting the serum to the plate. Before pipetting, the tip was pre-wetted several times, drawing a volume into the tip and dispensing it back into the tube. Sample preparation procedures for serum samples consisted of 25μL serum mixed with 25μL water, 25μL methanol, 25μL isotopically labeled internal standards in 50% acetonitrile (see Table S1), and 100μL acetonitrile. Thereafter, samples were mixed vigorous by shaking for 30 min and centrifuged at 2,600×g for 10 min at room temperature. The supernatant ( 0.2mL ) was transferred to 96-well plates with 0.5-mL conical glass vials (MicroLiter Analytical Supplies) and again centrifuged at 3,000×g for 10 min before analysis. The QC samples and chemical blanks were prepared following the same procedure as the serum samples. The calibration standards were prepared in FBS the same way as the samples, except for the addition of diluted reference standards of all analyzed compounds in 25μL of the methanol solution.
Aliquots of 4μL of the sample were analyzed using LC/MS/MS. For the analysis, a C18 column ( 4μm , 2.1mm i.d.×50mm , Genesis Lightning) was used prior to the injector to filter the mobile phases. The analytical column was an Aquity BEH ( 1.7μm , 2.1mm i.d.×100mm Waters). The mobile phases (A and B) were A: 5 mM ammonium acetate in water:methanol (50:50); and B: methanol. The mobile phase was kept at 0% B for 2.5 min after injection. A gradient was then applied over 11 min to 90% B, where it was then kept for 1.5 min. The column was then conditioned at 0% B for 2 min.

Molecules are shown by their SMILES. Read-outs that look alike come from different tables or passages of the source.

Turning to `O=S(=O)(O)C(F)(F)C(F)(F)C(F)(F)C(F)(F)C(F)(F)C(F)(F)C(F)(F)C(F)(F)F` [PFOS, perfluorooctane sulfonic acid], the “Personal average urine/serum ratio, median (range)” value in data set [1] stood at 0.00092. The Urine/serum ratio in data set [2] (nonpregnant women) was 0.013; in data set [2] (pregnant women), 0.0004. Also, in data set [3] (PFHpS vs PFHpA, PFOS vs PFOA), the “Average half-life longer than that of the PFCA with same number of carbon atoms” value is given as roughly 1.2 y. For the same compound, the Average serum half-life in data set [3] (population average, linear mixed model with original serum levels, 17 airport employees after end of drinking-water exposure) came to 2.9 y. Also, the Average half-life in data set [4] was 3.4 y.

On to `O=C(O)C(F)(F)C(F)(F)C(F)(F)C(F)(F)F` [PFPeA, perfluoropentanoic acid], for which the “Level in serum samples” value in data set [5] is “below LOD”.
